Measured values published in patent US7348437B2, “Proteomic analysis” (The Scripps Research Institute, priority 2004, dated 2008).

Experiments:
[1] = molecular target: T1, dipeptidylpeptidase III (DPPIII) (Homo sapiens, UniProt Q9NY33); experiment: Inhibition of HxBP—Rh labeling of dipeptidylpeptidase III in MCF7 soluble proteome
T1 sequence (Q9NY33 1-737): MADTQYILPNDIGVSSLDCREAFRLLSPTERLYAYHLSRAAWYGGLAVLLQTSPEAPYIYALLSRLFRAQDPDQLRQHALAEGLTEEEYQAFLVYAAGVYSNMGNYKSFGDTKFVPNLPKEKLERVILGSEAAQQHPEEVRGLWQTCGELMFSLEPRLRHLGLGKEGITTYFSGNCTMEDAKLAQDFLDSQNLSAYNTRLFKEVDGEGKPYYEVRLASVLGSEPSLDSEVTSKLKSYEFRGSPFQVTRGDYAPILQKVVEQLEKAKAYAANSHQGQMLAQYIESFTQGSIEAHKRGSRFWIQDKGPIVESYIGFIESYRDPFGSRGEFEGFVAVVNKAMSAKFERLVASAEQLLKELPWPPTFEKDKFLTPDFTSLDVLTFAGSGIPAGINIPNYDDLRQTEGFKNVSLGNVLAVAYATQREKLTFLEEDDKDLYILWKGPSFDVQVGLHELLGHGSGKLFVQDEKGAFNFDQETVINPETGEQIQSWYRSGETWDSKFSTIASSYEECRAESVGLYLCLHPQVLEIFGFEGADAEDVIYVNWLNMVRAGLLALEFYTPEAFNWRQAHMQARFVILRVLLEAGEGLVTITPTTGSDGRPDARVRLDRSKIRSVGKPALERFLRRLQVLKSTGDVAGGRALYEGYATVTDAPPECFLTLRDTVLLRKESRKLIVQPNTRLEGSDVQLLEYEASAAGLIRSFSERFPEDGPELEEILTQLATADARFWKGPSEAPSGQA
Description: For labeling and detection of MPs using HxBP—Rh, the following technique can be used. […] Kidney and cancer cell proteomes, prepared as known to those having ordinary skill in the art, can be adjusted to 1 mg/ml in 50 mM Tris-HCl buffer (pH 8.0) prior to labeling. A portion of each cancer cell line proteome sample can be treated with PNGaseF (New England Biolabs) to provide deglycosylated proteomes, as known to those having ordinary skill in the art. Labeled samples can be separated by SDS-PAGE, and visualized in-gel with a Hitachi FMBio IIe flatbed scanner (Mirabio). Integrated band intensities can be calculated from several independent labeling reactions, and averaged to provide the level of each enzyme activity in each sample.
(§1) For measuring the IC50 values for MP inhibitors using HxBP—Rh, the following technique can be used. IC50 values for neprilysin, dipeptidylpeptidase III (DPPIII), and leucine aminopeptidase (LAP) can be determined using Prism Software (Graph Pad) from dose-response curves of three trials at concentrations of GM6001 ranging from 0.001-20 μM and 50 nM HxBP—Rh probe. Neprilysin, DPPIII, and LAP assays can be conducted using MUM-2B membrane, MCF7 soluble, and mouse kidney soluble proteomes, respectively.
Shown is a representative HxBP—Rh labeling (100 nM) profile of the soluble proteome from MCF-7 cells. […]

neprilysin = neprilysin (Homo sapiens, UniProt P08473); experiment: Inhibition of HxBP—Rh labeling of neprilysin in MUM-2B membrane proteome (competitive activity-based profiling, in-gel fluorescence); type: binding; settings: 50 nM HxBP—Rh probe, three trials, 95% confidence limits 12-23 nM
neprilysin, sequence (P08473 whole entry): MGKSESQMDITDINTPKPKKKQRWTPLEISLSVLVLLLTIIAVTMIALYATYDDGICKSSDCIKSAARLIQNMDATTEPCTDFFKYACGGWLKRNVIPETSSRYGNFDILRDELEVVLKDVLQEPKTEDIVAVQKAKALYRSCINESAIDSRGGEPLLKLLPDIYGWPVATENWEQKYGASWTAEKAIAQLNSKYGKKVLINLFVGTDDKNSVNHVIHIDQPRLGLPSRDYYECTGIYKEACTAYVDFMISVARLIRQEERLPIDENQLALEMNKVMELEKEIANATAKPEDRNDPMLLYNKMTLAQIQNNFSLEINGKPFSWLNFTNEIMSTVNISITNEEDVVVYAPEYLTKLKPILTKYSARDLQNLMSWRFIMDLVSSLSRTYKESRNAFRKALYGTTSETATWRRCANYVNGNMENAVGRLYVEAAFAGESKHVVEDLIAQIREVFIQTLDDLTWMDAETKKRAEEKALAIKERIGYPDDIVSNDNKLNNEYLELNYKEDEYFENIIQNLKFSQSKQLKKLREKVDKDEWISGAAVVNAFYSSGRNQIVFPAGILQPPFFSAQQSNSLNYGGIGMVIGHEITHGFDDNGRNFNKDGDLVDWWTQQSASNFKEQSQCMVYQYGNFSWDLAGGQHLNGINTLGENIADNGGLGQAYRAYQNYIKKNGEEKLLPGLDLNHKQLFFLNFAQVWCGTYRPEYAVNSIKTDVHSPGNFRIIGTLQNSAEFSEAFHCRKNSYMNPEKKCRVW
Description: (§2) For labeling and detection of MPs using HxBP—Rh, the following technique can be used. […] Kidney and cancer cell proteomes, prepared as known to those having ordinary skill in the art, can be adjusted to 1 mg/ml in 50 mM Tris-HCl buffer (pH 8.0) prior to labeling. […] Labeled samples can be separated by SDS-PAGE, and visualized in-gel with a Hitachi FMBio IIe flatbed scanner (Mirabio). Integrated band intensities can be calculated from several independent labeling reactions, and averaged to provide the level of each enzyme activity in each sample.
as §1
(§3) Right panels show the concentration-dependence of inhibition of HxBP—Rh labeling of by GM6001 (each data point corresponds to the average of three independent trials and is presented as a percentage of control reactions conducted without GM6001).

MMP-2 = molecular target: T2, MMP-2 (Homo sapiens, UniProt P08253); experiment: Activity-based labeling of purified MMP-2 added to mouse kidney proteome; settings: GM6001 5 μM or TIMP-1 200 ng, HxBP—Rh 100 nM
T2 sequence (P08253 110-660): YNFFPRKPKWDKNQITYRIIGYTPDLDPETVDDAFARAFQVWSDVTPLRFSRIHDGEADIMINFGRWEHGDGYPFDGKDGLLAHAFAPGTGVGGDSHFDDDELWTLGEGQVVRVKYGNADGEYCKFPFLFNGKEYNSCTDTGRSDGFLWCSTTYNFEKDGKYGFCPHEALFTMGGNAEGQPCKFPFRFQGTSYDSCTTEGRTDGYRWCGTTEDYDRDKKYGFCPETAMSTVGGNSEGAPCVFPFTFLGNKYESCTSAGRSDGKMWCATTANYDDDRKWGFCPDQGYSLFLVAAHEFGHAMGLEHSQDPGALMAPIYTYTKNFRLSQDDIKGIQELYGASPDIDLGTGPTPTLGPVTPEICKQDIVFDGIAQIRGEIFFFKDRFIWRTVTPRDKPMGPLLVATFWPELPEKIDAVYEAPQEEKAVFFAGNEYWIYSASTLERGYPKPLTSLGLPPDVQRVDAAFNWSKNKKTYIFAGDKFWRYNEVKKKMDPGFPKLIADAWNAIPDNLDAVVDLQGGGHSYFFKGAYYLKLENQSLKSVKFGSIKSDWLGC
Description: For labeling and detection of MPs using HxBP—Rh, the following technique can be used. Purified MMP-2 can be diluted in buffer 1 (30 ng of enzyme) and mixed with 100 nM HxBP—Rh in the presence or absence of 5 μM GM6001 or TIMP-1 (80 ng). These mixtures can be pre-incubated on ice for 15 min prior to irradiation at 365 nm for 1 hour (on ice) followed by quenching with one volume of standard 2× SDS/PAGE loading buffer (reducing). Kidney and cancer cell proteomes, prepared as known to those having ordinary skill in the art, can be adjusted to 1 mg/ml in 50 mM Tris-HCl buffer (pH 8.0) prior to labeling. […] Labeled samples can be separated by SDS-PAGE, and visualized in-gel with a Hitachi FMBio IIe flatbed scanner (Mirabio). Integrated band intensities can be calculated from several independent labeling reactions, and averaged to provide the level of each enzyme activity in each sample.
With the reference to FIG. 3A, purified MMP-2 (100 ng) or pro-MMP-2 (100 ng) were added to a mouse kidney proteome (15 μL, 1 μg protein/μL) and treated with HxBP—Rh (100 nM) for 15 min prior to photocrosslinking and analysis by SDS-PAGE and in-gel fluorescence scanning.
FIG. 3B illustrates HxBP—Rh labeling of a serial dilution of purified MMP-2 added to a mouse kidney proteome.

[2] = molecular target: T3, leucine aminopeptidase (LAP) (Mus musculus, UniProt Q9CPY7); experiment: Inhibition of HxBP—Rh labeling of leucine aminopeptidase in mouse kidney soluble proteome
T3 sequence (Q9CPY7 1-519): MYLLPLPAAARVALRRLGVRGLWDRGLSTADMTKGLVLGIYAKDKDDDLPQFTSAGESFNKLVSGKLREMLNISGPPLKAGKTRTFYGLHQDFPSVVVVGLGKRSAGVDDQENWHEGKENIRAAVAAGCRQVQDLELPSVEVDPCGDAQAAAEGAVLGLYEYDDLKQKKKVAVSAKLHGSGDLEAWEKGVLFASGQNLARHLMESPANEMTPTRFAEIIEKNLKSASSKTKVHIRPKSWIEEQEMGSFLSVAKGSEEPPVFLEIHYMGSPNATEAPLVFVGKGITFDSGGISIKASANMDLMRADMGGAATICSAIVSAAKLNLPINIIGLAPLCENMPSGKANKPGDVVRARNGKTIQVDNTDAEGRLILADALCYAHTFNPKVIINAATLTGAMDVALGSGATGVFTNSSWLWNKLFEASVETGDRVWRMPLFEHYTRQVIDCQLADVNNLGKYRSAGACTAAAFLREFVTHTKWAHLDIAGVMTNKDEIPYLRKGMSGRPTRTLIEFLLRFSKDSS
Description: as §2, §1, §3

`CNC(=O)[C@H](Cc1c[nH]c2ccccc12)NC(=O)[C@@H](CC(=O)NO)CC(C)C` [GM6001] was tested, and the IC50 [1] was 76 nM, the “Effect on HxBP—Rh labeling of ~80 kDa protein (DPPIII)” value ([1]; GM6001 5 μM, HxBP—Rh 100 nM, soluble proteome from MCF-7 cells) was “blocked” and the IC50 (neprilysin) was 17 nM. The “Effect on HxBP—Rh labeling of MMP-2 in whole proteome” value (MMP-2) was “blocked” and the IC50 [2] was 111 nM.

“TIMP-1: inhibitor of MMP-2 used to block probe labeling” was tested, and the “Effect on HxBP—Rh labeling of MMP-2 in whole proteome” value (MMP-2) was “blocked”.
